Values after ≈ are worked out from the molar mass of the structure shown.
How the values were obtained:
Assay type in all cases: functional
Settings in all cases: Chlorocebus sabaeus, read-out: ID50 (the source's name)
Vero [1] = experiment: Tested for the concentration required to inhibit HSV-1 strain KOS cytopathic effect by 50% in vero cells
Vero [2] = experiment: Tested for the concentration required to inhibit HSV-2 strain 186 cytopathic effect by 50% in vero cells
Vero [3] = experiment: Tested for the cytotoxic effect in vero cell monolayers after incubation for 48 hr at 37 degree Centigrade

SMILES | IC50 (Vero [1]) [µg/mL] | IC50 (Vero [2]) [µg/mL] | IC50 (Vero [3]) [µg/mL]
Nc1nc(O)c2ncn([C@H]3C[C@H](O)[C@](O)(CO)C3)c2n1 | 70 (≈ 249 µM) | 65 (≈ 231 µM) | > 300
Nc1nc(O)c2ncn([C@H]3C[C@H](O)[C@@](O)(CO)C3)c2n1 | 0.15 (≈ 0.533 µM) | 0.26 (≈ 0.924 µM) | > 900
Nc1nc(O)c2ncn(C3CC(O)C(F)(CO)C3)c2n1 (stereo not given) | 0.15 (≈ 0.53 µM) | 0.36 (≈ 1.27 µM) | 100 (≈ 353 µM)
Nc1nc2c(ncn2COCCO)c(=O)[nH]1 [ACYCLOVIR] | 0.2 (≈ 0.888 µM) | 0.6 (≈ 2.66 µM) | > 300
Nc1nc(O)c2ncn([C@@H]3C[C@H](CO)[C@@H](O)C3)c2n1 | 0.06 (≈ 0.226 µM) | 0.44 (≈ 1.66 µM) | 300 (≈ 1130 µM)
